In US20100022600A1, “METHODS AND COMPOSITIONS FOR TREATING CENTRAL NERVOUS SYSTEM TUMORS” (priority 2006, published 2010):

How the values were obtained:
C6 glioma cell cultures = experiment: Ki-67 immunoreactivity and proliferation-index in vitro; assay type: cell-based, rat; conditions: 30 μM pio, 2 d and 5 d
Experimental: C6 glioma cell cultures were treated with pio or vehicle for 2 d and 5 d and fixed in 4% paraformaldehyde, rinsed in TBS and incubated with rabbit anti-Ki-67 (1:200 dilution) at 4° C. overnight and processed as described above. Counterstaining was carried out with propidium iodide (P1; 1:40; Sigma, St. Louis, Mo., USA) or DAPI-staining (1:500 in PBS). For determination of the proliferation-index, Ki-67 positive cells in pio and vehicle treated cells and animals were counted, the percentage of Ki-67 positive cells in 1×10^3 tumor cells (P1 staining used in the in vitro experiments—not shown; DAPI stain used in the in vivo experiments) calculated and statistically compared. The percentage of cleaved caspase-3 positive cells was assessed by counting the immunopositive cells in 1×10^3 tumor (DAPI stain) cells and statistically compared.

primary astrocytes = experiment: MTT viability assay, primary astrocytes; assay type: cell-based; conditions: 1, 10, 30 μM; 1, 3, 5, 7 d
Experimental: (§1) Rat C6 glioma cells were grown in DMEM and human glioma cells (U87, A172) in RPMI, supplemented with 10% (v/v) fetal calf serum, 100 U/mL penicillin and 100 U/mL streptomycin in a 5% CO2 atmosphere. Primary astrocyte cultures were prepared as described previously (J Neurosci 1998; 18: 4451-60) and grown in DMEM, supplemented with 2.5% (v/v) fetal calf serum, 100 U/mL penicillin and 100 U/mL streptomycin in a 5% CO2 atmosphere. […] Experiments were performed in triplicate.

[1] = system: C6 glioma cells injected in rat striata; experiment: C6 rat glioma model, tumor volume and histology; assay type: in vivo; conditions: for reduction of tumor volume compared to vehicle: 21 d
Experimental: Spraque-Dawley rats (Charles River Laboratories, Sulzfeld, Germany), weighting 200-250 g were used. Animals were housed in groups of two under standard conditions at a temperature of 22° C.±1 and a 12-h light-dark cycle with free access to food and water. Experiments were carried out in accordance with the declaration of Helsinki and were approved by the local ethical committee for animal experiments. Before implantation, 85-90% confluent C6 cells were trypsinized, rinsed with DMEM+10% fetal calf serum, and centrifuged at 1000 rpm for 4 min. The cell pellet was resuspended in DMEM and placed on ice. Concentration of viable cells was adjusted to 1×10^5 cells/1 μl of DMEM. Each rat was anesthetized and placed in a stereotactic frame (David Kopf Instruments, Tujunga, Calif., USA), a hole was drilled at AP 0.0, R -3.0 relative to bregma according to the stereotaxic atlas of […], 1963). Tumor cells were injected at a rate of 0.5 μl/s, using a 2 μl Hamilton (#2701) syringe (Reno, Nev., USA) with a 26 s-gauge needle mounted on a stereotactic holder at a depth of 5 mm. […] For intracerebral administration of pio/vehicle (DMSO), the tip of an Alzet-brain-infusion-kit (Cupertino, Calif., USA) was placed in a depth of 5 mm, connected to a 2ML4 Alzet osmotic pump (Cupertino, Calif., USA). Drug administration began 4 h after surgery. […] The pumps were filled with 20 μM pio solved in PBS or vehicle (DMSO, 0.1% final concentration) solved in PBS. Animals were randomly distributed in two groups, treated with pio filled pumps (n=26) or vehicle filled pumps (n=26). Thereafter skull was cleaned and the incision sutured. […] Control animals received Purina chow without additions. Rats were allowed free access to the chow. Tumors were allowed to grow and animals were weighed daily. […] Brains were serially sectioned at 10 μm using a cryostat (Leica, Jung CMI800, Germany). Sections for hematoxylin-eosin (HE)-staining were placed onto uncoated slides. Sections intended for use in immunoreactivity assays were placed onto coded slides (Fisher finest, premium; Houston, Tex., USA). Sections were routinely HE-stained for histomorphological assessment and measurement of tumor volume as well as immunohistochemically processed for Ki-67-, BAX, cleaved caspase-3-expression, MMP9, CS-56 and BrdU-incorporation. Images of HE-stained sections containing the tumor were captured with a SPOT model 1.3 camera (Diagnostic Instruments, Inc., Sterling Heights, Mich., USA) using a 1× objective and images processed using NIH Image 1.62 software (Bethesda, Md., USA). The tumor area of each section was manually outlined by a blinded observer using the freehand selection tool to measure tumor area in mm^2. The area was then multiplied by the section thickness (10 μm section, 10 sections/HE stain) to achieve a section volume measurement. Volumes of all sections were added to calculate the total volume of each tumor. Tumor volumes for five/six animals of every group were measured.

CS-56 = CS-56 expression in tumor cells in vitro; assay type: cell-based; conditions: data not shown
human glioma cells A172 = experiment: MTT viability assay, human A172 glioma cells; assay type: cell-based; conditions: 30 μM pio; 3, 5 and 7 d
Experimental: as §1

[2] = Clinical assessment of neurological deficits in C6 rat glioma model; assay type: in vivo; conditions: intracerebral treatment, 21 d
Experimental: After striatal injection of C6 cells and intracerebral treatment with pio or vehicle for 21 d, the animals were examined for neurological deficits. Neurological function was quantified by evaluation of hemiparesis, cycling and immobility (J Neurosurg 1986; 65: 222-9, Stroke 1999; 30: 427-31; discussion 431-2). Hemiparesis was assessed by forelimb flexion and immobility by the loss of ability to walk a distance greater than 15 cm. One point was given for each negative finding and total score then computed. The scores of the treated and untreated group were averaged. A blinded observer performed neurological examinations.

Q: With `CCc1ccc(CCOc2ccc(CC3SC(=O)NC3=O)cc2)nc1` (centres unmarked) [pioglitazone, 5-[4-[2-(5-ethylpyridin-2-yl)ethoxyl]benzyl]thiazolidine-2,4-dione] as the compound, how does the “number of Ki-67 immunopositive cells compared to vehicle” value (C6 glioma cell cultures) read?
A: reduced the number of Ki-67 immunopositive cells

Q: And the “viability of primary astrocytes” value (primary astrocytes)?
A: not affected

Q: What about the “tumor volume compared to vehicle, in words” value ([1]; intracerebral, 3 and 6 days) of the same compound?
A: no significant differences

Q: And the “tumor volume compared to vehicle, in words” value ([1]; intracerebral, 9, 14 and 21 days)?
A: decreased significantly

Q: What about the “reduction of tumor volume compared to vehicle” value (from here on “reduction of tumor volume”) ([1]; intracerebral, pio 20 μM via osmotic pump) of the same compound?
A: 83%

Q: And the “reduction of tumor volume” value ([1]; oral treatment (in chow))?
A: 77%

Q: What about the “reduction of tumor volume” value ([1]; oral treatment (in chow), listed as pio) of the same compound?
A: 76.9%

Q: And the “histological evaluation of tumor margins and invasiveness” value ([1]; pio treated in vivo gliomas)?
A: more defined tumor margins and decreased invasiveness

Q: And the “CS-56 expression in vitro” value (CS-56)?
A: highly upregulated

Q: What about the “cellular viability, effect in words” value (human glioma cells A172) of the same compound?
A: significantly reduced cellular viability

Q: What about the clinical outcome overall [2] of the same compound?
A: significant better clinical outcome

Q: And the cycling ([2]; versus vehicle)?
A: no cycling

Q: What about the hemiparesis ([2]; versus vehicle) of the same compound?
A: less hemiparesis

Q: What about the immobility ([2]; versus vehicle) of the same compound?
A: less immobility
